Experimental data: US20250122219A1 (priority 2023, published 2025)

Experiments:
HIV-1 (IIIB) = assay: Antiviral assay in MT-4 cells; format: cell-based; details: Human immunodeficiency virus 1, MT4, 120 h; HIV-1 IIIB in MT-4 cells, 5 days incubation, Cell Titer Glo; read-out: MT4 EC50
How it was run: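 HIV-1 IIIB-infected MT-4 cells (fresh 1:250 virus stock dilution; mock-infected controls) incubated 5 days at 37 °C with serially diluted compounds in RPMI/10% FBS; 5 μM AZT as positive control. Cell viability read by CellTiter-Glo luminescence as measure of protection from viral replication.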

[1] = Cytotoxicity assay in MT-4 cells; format: cell-based; details: human; uninfected MT-4 cells, 5 days incubation, Cell Titer Glo; read-out: MT4 CC50
How it was run: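 Uninfected MT-4 cells exposed to serially diluted compounds in RPMI with 10% FBS for 5 days at 37 °C. Viability by Cell Titer Glo chemiluminescence. Puromycin […] as baseline cytotoxicity control.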

Row | Compound | EC50 (HIV-1 (IIIB)) [µM] | CC50 at 5 days [1] [µM]
1 | CCOC(=O)Oc1c2n(cc(C(=O)NCc3ccc(F)cc3F)c1=O)[C@@H]1CN(C2=O)[C@@H](C)CC[C@]12CC(C)=NO2 [Example 123, (3′S,5S,7′R)-10′-((2,4-difluorobenzyl)carbamoyl)-3,3′-dimethyl-1′,11′-dioxo-1′,4′,5′,11′-tetrahydro-3′H,4H,7′H-spiro[isoxazole-5,6′-[2,7]methanopyrido[1,2-a][1,4]diazonin]-12′-yl ethyl carbonate] | 0.00173 | 14.1
2 | CCOC(=O)Oc1c2n(cc(C(=O)NCc3ccc(F)cc3F)c1=O)[C@@H]1CN(C2=O)[C@@H](C)CC[C@]12CC(OC)=NO2 [Example 124, (3′S,5S,7′R)-10′-((2,4-difluorobenzyl)carbamoyl)-3-methoxy-3′-methyl-1′,11′-dioxo-1′,4′,5′,11′-tetrahydro-3′H,4H,7′H-spiro[isoxazole-5,6′-[2,7]methanopyrido[1,2-a][1,4]diazonin]-12′-yl ethyl carbonate] | 0.000898 | 17.1
3 | CCCCOC(=O)Oc1c2n(cc(C(=O)NCc3ccc(F)cc3F)c1=O)[C@@H]1CN(C2=O)[C@@H](C)CC[C@]12CC(C)=NO2 [Example 127, butyl butyl ((3′S,5S,7′R)-10′-((2,4-difluorobenzyl)carbamoyl)-3,3′-dimethyl-1′,11′-dioxo-1′,4′,5′,11′-tetrahydro-3′H,4H,7′H-spiro[isoxazole-5,6′-[2,7]methanopyrido[1,2-a][1,4]diazonin]-12′-yl) carbonate] | 0.000201 | 13.3
4 | CCCCOC(=O)Oc1c2n(cc(C(=O)NCc3ccc(F)cc3F)c1=O)[C@@H]1CN(C2=O)[C@@H](C)CC[C@]12CC(OC)=NO2 [Example 128, butyl ((3′S,5S,7′R)-10′-((2,4-difluorobenzyl)carbamoyl)-3-methoxy-3′-methyl-1′,11′-dioxo-1′,4′,5′,11′-tetrahydro-3′H,4H,7′H-spiro[isoxazole-5,6′-[2,7]methanopyrido[1,2-a][1,4]diazonin]-12′-yl) carbonate] | 0.00021 | 19.3
5 | CCCCCOC(=O)Oc1c2n(cc(C(=O)NCc3ccc(F)cc3F)c1=O)[C@@H]1CN(C2=O)[C@@H](C)CC[C@]12CC(C)=NO2 [Example 129, (3′S,5S,7′R)-10′-((2,4-difluorobenzyl)carbamoyl)-3,3′-dimethyl-1′,11′-dioxo-1′,4′,5′,11′-tetrahydro-3′H,4H,7′H-spiro[isoxazole-5,6′-[2,7]methanopyrido[1,2-a][1,4]diazonin]-12′-yl pentyl carbonate] | 0.00178 | 21.7
6 | CCCCCOC(=O)Oc1c2n(cc(C(=O)NCc3ccc(F)cc3F)c1=O)[C@@H]1CN(C2=O)[C@@H](C)CC[C@]12CC(OC)=NO2 [Example 130, (3′S,5S,7′R)-10′-((2,4-difluorobenzyl)carbamoyl)-3-methoxy-3′-methyl-1′,11′-dioxo-1′,4′,5′,11′-tetrahydro-3′H,4H,7′H-spiro[isoxazole-5,6′-[2,7]methanopyrido[1,2-a][1,4]diazonin]-12′-yl pentyl carbonate] | 0.00183 | 31.7
7 | CCCCCCOC(=O)Oc1c2n(cc(C(=O)NCc3ccc(F)cc3F)c1=O)[C@@H]1CN(C2=O)[C@@H](C)CC[C@]12CC(C)=NO2 [Example 131, (3′S,5S,7′R)-10′-((2,4-difluorobenzyl)carbamoyl)-3,3′-dimethyl-1′,11′-dioxo-1′,4′,5′,11′-tetrahydro-3′H,4H,7′H-spiro[isoxazole-5,6′-[2,7]methanopyrido[1,2-a][1,4]diazonin]-12′-yl hexyl carbonate] | 0.000136 | 19.8
8 | CCCCCCOC(=O)Oc1c2n(cc(C(=O)NCc3ccc(F)cc3F)c1=O)[C@@H]1CN(C2=O)[C@@H](C)CC[C@]12CC(OC)=NO2 [Example 132, (3′S,5S,7′R)-10′-((2,4-difluorobenzyl)carbamoyl)-3-methoxy-3′-methyl-1′,11′-dioxo-1′,4′,5′,11′-tetrahydro-3′H,4H,7′H-spiro[isoxazole-5,6′-[2,7]methanopyrido[1,2-a][1,4]diazonin]-12′-yl hexyl carbonate] | 0.000153 | 17.8
9 | CCCCCCCOC(=O)Oc1c2n(cc(C(=O)NCc3ccc(F)cc3F)c1=O)[C@@H]1CN(C2=O)[C@@H](C)CC[C@]12CC(C)=NO2 [Example 133, (3′S,5S,7′R)-10′-((2,4-difluorobenzyl)carbamoyl)-3,3′-dimethyl-1′,11′-dioxo-1′,4′,5′,11′-tetrahydro-3′H,4H,7′H-spiro[isoxazole-5,6′-[2,7]methanopyrido[1,2-a][1,4]diazonin]-12′-yl heptyl carbonate] | 0.000819 | 16.7
10 | CCCCCCCOC(=O)Oc1c2n(cc(C(=O)NCc3ccc(F)cc3F)c1=O)[C@@H]1CN(C2=O)[C@@H](C)CC[C@]12CC(OC)=NO2 [Example 134, (3′S,5S,7′R)-10′-((2,4-difluorobenzyl)carbamoyl)-3-methoxy-3′-methyl-1′,11′-dioxo-1′,4′,5′,11′-tetrahydro-3′H,4H,7′H-spiro[isoxazole-5,6′-[2,7]methanopyrido[1,2-a][1,4]diazonin]-12′-yl heptyl carbonate] | 0.000516 | 25.7
11 | CCCCCCCCOC(=O)Oc1c2n(cc(C(=O)NCc3ccc(F)cc3F)c1=O)[C@@H]1CN(C2=O)[C@@H](C)CC[C@]12CC(C)=NO2 [Example 135, (3′S,5S,7′R)-10′-((2,4-difluorobenzyl)carbamoyl)-3,3′-dimethyl-1′,11′-dioxo-1′,4′,5′,11′-tetrahydro-3′H,4H,7′H-spiro[isoxazole-5,6′-[2,7]methanopyrido[1,2-a][1,4]diazonin]-12′-yl octyl carbonate] | 0.000409 | 14.2
12 | CCCCCCCCOC(=O)Oc1c2n(cc(C(=O)NCc3ccc(F)cc3F)c1=O)[C@@H]1CN(C2=O)[C@@H](C)CC[C@]12CC(OC)=NO2 [Example 136, (3′S,5S,7′R)-10′-((2,4-difluorobenzyl)carbamoyl)-3-methoxy-3′-methyl-1′,11′-dioxo-1′,4′,5′,11′-tetrahydro-3′H,4H,7′H-spiro[isoxazole-5,6′-[2,7]methanopyrido[1,2-a][1,4]diazonin]-12′-yl octyl carbonate] | 0.000496 | 23.5
13 | CCCCCCCCCOC(=O)Oc1c2n(cc(C(=O)NCc3ccc(F)cc3F)c1=O)[C@@H]1CN(C2=O)[C@@H](C)CC[C@]12CC(C)=NO2 [Example 137, (3′S,5S,7′R)-10′-((2,4-difluorobenzyl)carbamoyl)-3,3′-dimethyl-1′,11′-dioxo-1′,4′,5′,11′-tetrahydro-3′H,4H,7′H-spiro[isoxazole-5,6′-[2,7]methanopyrido[1,2-a][1,4]diazonin]-12′-yl nonyl carbonate] | 0.00207 | 10.2
14 | CCCCCCCCCOC(=O)Oc1c2n(cc(C(=O)NCc3ccc(F)cc3F)c1=O)[C@@H]1CN(C2=O)[C@@H](C)CC[C@]12CC(OC)=NO2 [Example 138, (3′S,5S,7′R)-10′-((2,4-difluorobenzyl)carbamoyl)-3-methoxy-3′-methyl-1′,11′-dioxo-1′,4′,5′,11′-tetrahydro-3′H,4H,7′H-spiro[isoxazole-5,6′-[2,7]methanopyrido[1,2-a][1,4]diazonin]-12′-yl nonyl carbonate] | 0.00214 | 14.1
15 | CCCCCCCCCCOC(=O)Oc1c2n(cc(C(=O)NCc3ccc(F)cc3F)c1=O)[C@@H]1CN(C2=O)[C@@H](C)CC[C@]12CC(C)=NO2 [Example 139, decyl ((3′S,5S,7′R)-10′-((2,4-difluorobenzyl)carbamoyl)-3,3′-dimethyl-1′,11′-dioxo-1′,4′,5′,11′-tetrahydro-3′H,4H,7′H-spiro[isoxazole-5,6′-[2,7]methanopyrido[1,2-a][1,4]diazonin]-12′-yl) carbonate] | 0.000995 | 13.2
16 | CCCCCCCCCCOC(=O)Oc1c2n(cc(C(=O)NCc3ccc(F)cc3F)c1=O)[C@@H]1CN(C2=O)[C@@H](C)CC[C@]12CC(OC)=NO2 [Example 140, decyl ((3′S,5S,7′R)-10′-((2,4-difluorobenzyl)carbamoyl)-3-methoxy-3′-methyl-1′,11′-dioxo-1′,4′,5′,11′-tetrahydro-3′H,4H,7′H-spiro[isoxazole-5,6′-[2,7]methanopyrido[1,2-a][1,4]diazonin]-12′-yl) carbonate] | 0.00336 | 15.9
17 | CCCCCCCCCCCCOC(=O)Oc1c2n(cc(C(=O)NCc3ccc(F)cc3F)c1=O)[C@@H]1CN(C2=O)[C@@H](C)CC[C@]12CC(C)=NO2 [Example 141, (3′S,5S,7′R)-10′-((2,4-difluorobenzyl)carbamoyl)-3,3′-dimethyl-1′,11′-dioxo-1′,4′,5′,11′-tetrahydro-3′H,4H,7′H-spiro[isoxazole-5,6′-[2,7]methanopyrido[1,2-a][1,4]diazonin]-12′-yl dodecyl carbonate] | 0.00264 | 16.5
18 | CCCCCCCCCCCCOC(=O)Oc1c2n(cc(C(=O)NCc3ccc(F)cc3F)c1=O)[C@@H]1CN(C2=O)[C@@H](C)CC[C@]12CC(OC)=NO2 [Example 142, (3′S,5S,7′R)-10′-((2,4-difluorobenzyl)carbamoyl)-3-methoxy-3′-methyl-1′,11′-dioxo-1′,4′,5′,11′-tetrahydro-3′H,4H,7′H-spiro[isoxazole-5,6′-[2,7]methanopyrido[1,2-a][1,4]diazonin]-12′-yl dodecyl carbonate] | 0.00364 | 36.4
